Test results as given in ChEMBL document CHEMBL1133966, “Substituted imidazoles as glucagon receptor antagonists” (Bioorg Med Chem Lett, 2001).
pIC50: −log10 of the molar value.

Target: T1, MAP kinase p38 (Homo sapiens, UniProt O15264+Q15759+Q16539+P53778)
Assay: Binding affinity towards human Mitogen-activated protein kinase p38 expressed as IC50
Assay type: protein assay
Conditions: not given

| SMILES | IC50 |
| --- | --- |
| Cc1cnccc1-c1[nH]c(-c2ccc(Cl)cc2)nc1-c1ccc(F)cc1 | 20 nM |
| Clc1ccc(-c2nc(-c3ccc(Cl)cc3)c(-c3ccncc3)[nH]2)cc1 | 23 nM |
| CSc1ccc(-c2nc(-c3ccc(F)cc3)c(-c3ccncc3)o2)cc1 | 930 nM |
| CCCOc1ccc(-c2[nH]c(-c3ccc(Cl)cc3)nc2-c2ccncc2)c(OCCC)c1 | 2400 nM |
| CSc1ccc(-c2nc(-c3ccc(F)cc3)c(-c3ccncc3)n2C)cc1 | 520 nM |
| CC(C)(C)c1ccc(-c2[nH]c(-c3ccc(Cl)cc3)nc2-c2ccncc2)cc1 | > 10000 nM |
| Clc1ccc(-c2nc(-c3ccc(Oc4ccccc4)cc3)c(-c3ccncc3)[nH]2)cc1 | 250 nM |
| CCCCOc1ccccc1-c1[nH]c(-c2ccc(Cl)cc2)nc1-c1ccncc1 | > 1000 nM |
| Clc1ccc(-c2nc(-c3cccc(-c4ccccc4)c3)c(-c3ccncc3)[nH]2)cc1 | 590 nM |
| CCCCc1ccc(-c2[nH]c(-c3ccc(Cl)cc3)nc2-c2ccncc2)cc1 | > 10000 nM |
| CSc1ccc(-c2nc(-c3ccncc3)c(-c3ccc(F)cc3)n2C)cc1 | 860 nM |
| Clc1ccc(-c2nc(-c3ccccc3Oc3ccccc3)c(-c3ccncc3)[nH]2)cc1 | 150 nM |
| Cc1cc(-c2[nH]c(-c3ccc(Cl)cc3)nc2-c2ccc(F)cc2)ccn1 | 50 nM |
| Clc1ccc(-c2nc(-c3cccc(Oc4ccccc4)c3)c(-c3ccncc3)[nH]2)cc1 | 220 nM |

Second part, the compound after the results:

| IC50 | SMILES |
| --- | --- |
| 340 nM | Fc1ccc(-c2[nH]c(-c3cccc4ccccc34)nc2-c2ccncc2)cc1 |
| 110 nM | Fc1ccc(-c2[nH]c(-c3ccc(Br)s3)nc2-c2ccncc2)cc1 |
| 80 nM | Fc1ccc(-c2[nH]c(-c3ccc(Cl)cc3)nc2-c2ccncc2)cc1 |
| 90 nM | Fc1ccc(-c2[nH]c(-c3ccccc3Br)nc2-c2ccncc2)cc1 |
| 210 nM | N#Cc1ccc(-c2nc(-c3ccncc3)c(-c3ccc(F)cc3)[nH]2)cc1 |
| 130 nM | Fc1ccc(-c2[nH]c(CCc3ccccc3)nc2-c2ccncc2)cc1 |
| 100 nM | Fc1ccc(-c2[nH]c(-c3cc(Br)cs3)nc2-c2ccncc2)cc1 |
| 90 nM | Cc1ccc(-c2nc(-c3ccc(F)cc3)c(-c3ccncc3)[nH]2)cc1 |
| 100 nM | Fc1ccc(-c2[nH]c(-c3ccc(I)cc3)nc2-c2ccncc2)cc1 |
| 280 nM | CC(C)c1ccc(-c2nc(-c3ccc(F)cc3)c(-c3ccncc3)[nH]2)cc1 |
| 140 nM | Clc1ccc(-c2nc(-c3ccc(I)cc3)c(-c3ccncc3)[nH]2)cc1 |
| 300 nM | Fc1ccc(-c2[nH]c(-c3ccc(-c4ccccc4)cc3)nc2-c2ccncc2)cc1 |
| 40 nM | Brc1ccc(-c2nc(-c3ccccc3)c(-c3ccncc3)[nH]2)cc1 |
| 100 nM | Oc1ccc(-c2[nH]c(-c3ccc(Br)cc3)nc2-c2ccccc2)cc1 |
| 160 nM | Fc1ccc(-c2[nH]c(-c3ccc(Br)cc3)nc2-c2ccncc2)cc1 |
| 2200 nM | Brc1ccc(-c2nc(-c3ccccc3)c(-c3ccccc3)[nH]2)cc1 |
| 190 nM | Fc1ccc(-c2[nH]c(-c3ccc(Br)o3)nc2-c2ccncc2)cc1 |
| 3300 nM | Clc1ccc(-c2nc(-c3ccc(-c4ccccc4)cc3)c(-c3ccncc3)[nH]2)cc1 |
| 150 nM | Fc1ccc(-c2[nH]c(-c3cccc(Br)c3)nc2-c2ccncc2)cc1 |

Target: T2, Glucagon receptor (Homo sapiens, UniProt P47871)
T2 sequence (P47871 whole entry): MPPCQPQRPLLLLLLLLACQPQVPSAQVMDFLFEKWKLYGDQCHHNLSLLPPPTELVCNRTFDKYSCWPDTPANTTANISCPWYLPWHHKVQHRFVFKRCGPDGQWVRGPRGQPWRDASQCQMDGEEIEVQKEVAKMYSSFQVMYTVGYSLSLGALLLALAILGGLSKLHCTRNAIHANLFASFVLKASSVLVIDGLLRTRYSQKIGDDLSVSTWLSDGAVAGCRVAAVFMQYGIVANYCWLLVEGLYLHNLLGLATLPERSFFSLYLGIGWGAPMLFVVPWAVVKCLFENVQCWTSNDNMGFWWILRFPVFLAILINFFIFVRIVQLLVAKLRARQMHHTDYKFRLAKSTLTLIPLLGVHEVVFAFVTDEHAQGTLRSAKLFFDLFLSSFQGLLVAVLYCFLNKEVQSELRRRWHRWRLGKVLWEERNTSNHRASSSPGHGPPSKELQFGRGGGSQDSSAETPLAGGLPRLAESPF
Assay: Affinity for human glucagon receptor in absence of Mg2+
Design: concentration or dose not given beside the values
Conditions: concentration not given here

| SMILES | inhibition |
| --- | --- |
| CSc1ccc(-c2nc(-c3ccc(F)cc3)c(-c3ccncc3)o2)cc1 | -8% |
| CSc1ccc(-c2nc(-c3ccc(F)cc3)c(-c3ccncc3)n2C)cc1 | 10% |
| CSc1ccc(-c2nc(-c3ccncc3)c(-c3ccc(F)cc3)n2C)cc1 | 38% |
| Cc1cc(-c2[nH]c(-c3ccc(Cl)cc3)nc2-c2ccc(F)cc2)ccn1 | 38% |

Other lines, results leading:

| inhibition | SMILES |
| --- | --- |
| < 20% | Fc1ccc(-c2[nH]c(CCc3ccccc3)nc2-c2ccncc2)cc1 |
| 24% | Oc1ccc(-c2[nH]c(-c3ccc(Br)cc3)nc2-c2ccccc2)cc1 |
| 37% | Brc1ccc(-c2nc(-c3ccccc3)c(-c3ccccc3)[nH]2)cc1 |
| < 20% | Fc1ccc(-c2[nH]c(-c3ccc(Br)o3)nc2-c2ccncc2)cc1 |

Target: T2, Glucagon receptor
Assay: Affinity for human glucagon receptor in presence of Mg2+
Conditions: not given

| SMILES | pIC50 |
| --- | --- |
| Clc1ccc(-c2nc(-c3ccc(Cl)cc3)c(-c3ccncc3)[nH]2)cc1 | 5.66 |
| CCCCOc1ccc(-c2[nH]c(-c3ccc(Cl)cc3)nc2-c2ccncc2)c(OCCCC)c1 | 7.28 |
| CCCOc1ccc(-c2[nH]c(-c3ccc(Cl)cc3)nc2-c2ccncc2)c(OCCC)c1 | 6.92 |
| CC(C)(C)c1ccc(-c2[nH]c(-c3ccc(Cl)cc3)nc2-c2ccncc2)cc1 | 5.47 |
| Clc1ccc(-c2nc(-c3ccc(Oc4ccccc4)cc3)c(-c3ccncc3)[nH]2)cc1 | 6.96 |
| CCCCOc1ccccc1-c1[nH]c(-c2ccc(Cl)cc2)nc1-c1ccncc1 | 6.96 |
| Clc1ccc(-c2nc(-c3cccc(-c4ccccc4)c3)c(-c3ccncc3)[nH]2)cc1 | < 5.52 |
| CCCCc1ccc(-c2[nH]c(-c3ccc(Cl)cc3)nc2-c2ccncc2)cc1 | 6.82 |
| Clc1ccc(-c2nc(-c3ccccc3Oc3ccccc3)c(-c3ccncc3)[nH]2)cc1 | 6.54 |
| Clc1ccc(-c2nc(-c3cccc(Oc4ccccc4)c3)c(-c3ccncc3)[nH]2)cc1 | 6.82 |

Other lines, results leading:

| pIC50 | SMILES |
| --- | --- |
| 5.49 | Fc1ccc(-c2[nH]c(-c3ccc(Cl)cc3)nc2-c2ccncc2)cc1 |
| 6.12 | Clc1ccc(-c2nc(-c3ccc(I)cc3)c(-c3ccncc3)[nH]2)cc1 |
| 5.54 | Fc1ccc(-c2[nH]c(-c3ccc(Br)cc3)nc2-c2ccncc2)cc1 |
| 5.42 | Clc1ccc(-c2nc(-c3ccc(-c4ccccc4)cc3)c(-c3ccncc3)[nH]2)cc1 |

Target: T1, MAP kinase p38
Assay: Inhibition of human Mitogen-activated protein kinase p38 at 40 uM
Assay type: protein assay
Conditions: not given

| inhibition | SMILES |
| --- | --- |
| 20% | CCCCOc1ccc(-c2[nH]c(-c3ccc(Cl)cc3)nc2-c2ccncc2)c(OCCCC)c1 |

Target: T2, Glucagon receptor
Assay: Binding affinity towards human glucagon receptor in absence of Mg2+ expressed as IC50
Conditions: not given

| SMILES | pIC50 |
| --- | --- |
| Cc1cnccc1-c1[nH]c(-c2ccc(Cl)cc2)nc1-c1ccc(F)cc1 | 5.96 |
| Clc1ccc(-c2nc(-c3ccc(Cl)cc3)c(-c3ccncc3)[nH]2)cc1 | 6.72 |
| CCCCOc1ccc(-c2[nH]c(-c3ccc(Cl)cc3)nc2-c2ccncc2)c(OCCCC)c1 | 8.19 |
| CCCOc1ccc(-c2[nH]c(-c3ccc(Cl)cc3)nc2-c2ccncc2)c(OCCC)c1 | 7.89 |
| CC(C)(C)c1ccc(-c2[nH]c(-c3ccc(Cl)cc3)nc2-c2ccncc2)cc1 | 6.89 |
| Clc1ccc(-c2nc(-c3ccc(Oc4ccccc4)cc3)c(-c3ccncc3)[nH]2)cc1 | 7.57 |
| CCCCOc1ccccc1-c1[nH]c(-c2ccc(Cl)cc2)nc1-c1ccncc1 | 8.07 |
| Clc1ccc(-c2nc(-c3cccc(-c4ccccc4)c3)c(-c3ccncc3)[nH]2)cc1 | 7.21 |
| CCCCc1ccc(-c2[nH]c(-c3ccc(Cl)cc3)nc2-c2ccncc2)cc1 | 7.13 |
| Clc1ccc(-c2nc(-c3ccccc3Oc3ccccc3)c(-c3ccncc3)[nH]2)cc1 | 8.19 |
| Clc1ccc(-c2nc(-c3cccc(Oc4ccccc4)c3)c(-c3ccncc3)[nH]2)cc1 | 7.89 |

More lines, now with the values ahead:

| pIC50 | SMILES |
| --- | --- |
| 5.82 | Fc1ccc(-c2[nH]c(-c3cccc4ccccc34)nc2-c2ccncc2)cc1 |
| 5.66 | Fc1ccc(-c2[nH]c(-c3ccc(Br)s3)nc2-c2ccncc2)cc1 |
| 6.40 | Fc1ccc(-c2[nH]c(-c3ccc(Cl)cc3)nc2-c2ccncc2)cc1 |
| 5.10 | N#Cc1ccc(-c2nc(-c3ccncc3)c(-c3ccc(F)cc3)[nH]2)cc1 |
| 5.55 | Fc1ccc(-c2[nH]c(-c3cc(Br)cs3)nc2-c2ccncc2)cc1 |
| 5.89 | Cc1ccc(-c2nc(-c3ccc(F)cc3)c(-c3ccncc3)[nH]2)cc1 |
| 6.29 | Fc1ccc(-c2[nH]c(-c3ccc(I)cc3)nc2-c2ccncc2)cc1 |
| 6.15 | CC(C)c1ccc(-c2nc(-c3ccc(F)cc3)c(-c3ccncc3)[nH]2)cc1 |
| 6.89 | Clc1ccc(-c2nc(-c3ccc(I)cc3)c(-c3ccncc3)[nH]2)cc1 |
| 5.00 | Fc1ccc(-c2[nH]c(-c3ccc(-c4ccccc4)cc3)nc2-c2ccncc2)cc1 |
| < 4.70 | Fc1ccc(-c2nc(-c3ccccc3)[nH]c2-c2ccncc2)cc1 |
| 6.11 | Brc1ccc(-c2nc(-c3ccccc3)c(-c3ccncc3)[nH]2)cc1 |
| 6.57 | Fc1ccc(-c2[nH]c(-c3ccc(Br)cc3)nc2-c2ccncc2)cc1 |
| 6.85 | Clc1ccc(-c2nc(-c3ccc(-c4ccccc4)cc3)c(-c3ccncc3)[nH]2)cc1 |
| 5.85 | Fc1ccc(-c2[nH]c(-c3cccc(Br)c3)nc2-c2ccncc2)cc1 |

Target: T2, Glucagon receptor
Assay: Binding affinity towards human glucagon receptor in absence of Mg2+
Conditions: concentration not given here

| inhibition | SMILES |
| --- | --- |
| < 20% | Oc1ccc(-c2nc(-c3ccc(F)cc3)c(-c3ccncc3)[nH]2)cc1 |
| < 20% | Fc1ccc(-c2[nH]c(-c3ccccc3Br)nc2-c2ccncc2)cc1 |
